Data set [1] relates to C6 cells. Put plainly: Cell viability/proliferation (Trypan blue, MTT), C6. Format: cell-based, rat. As to conditions: C6, Trypan blue exclusion and MTT. On the procedure:
Cell viability was tested in DMEM/10% FBS, in the presence of 1 nM or 100 nM uPAcyclin, either by Trypan blue exclusion or by thiazolyl blue tetrazolium bromide (MTT) assays, as specified in the figure legends. For the Trypan blue assay, 4 × 10^4 U87-MG, U251-MG, U138-MG, and C6 cells/sample were grown in 12-well plates, and followed for 24, 48 and 72 h. As a negative control, the cells were grown in a serum-free medium. Then, the cells were detached, stained with a 0.2% (w/v) Trypan blue solution, counted using a Burker chamber (T0 = 100%), and reported as number of viable cells/total.
For the MTT assay, 5 × 10^3 U87-MG and C6 cells/well were grown in 96-well plates for 24 h and tested as previously described. Briefly, MTT (Invitrogen-Life Technologies, Eugene, OR, USA) 5 mg/mL in a PBS solution was added to wells at a 10% final concentration, and incubated for 3 h at 37 °C, followed by the addition of stop solution (100 µL of DMSO/well) for 1 h at room temperature. Then, the optical densities were measured at 495 nm using the Microplate Reader (Synergy HT, Bio-Tek, Winoosky, VT, USA). The cell viability rate was calculated as a percentage by reporting the mean absorbance of treated groups to control groups, as follows: Cell viability rate (%) = (Atreated group/Acontrol group) × 100.

Data set [2] relates to U138-MG cells (αV integrin). Put plainly: FITC-uPAcyclin receptor binding/competition, U138-MG. Further details: species or system human. As to conditions: unlabeled uPAcyclin vs FITC-uPAcyclin, 4 °C. As for the experimental part: The U87-MG, U251-MG, and U138-MG cell lines were harvested and acid-treated, as described. Then, 2 × 10^6 cells/sample were exposed for 30 min at 4 °C to uPAcyclin or S-uPAcyclin at the indicated concentrations, or with the following antibodies: VNR147 monoclonal anti-αV integrin (Chemicon Int. Inc., Temecula, CA, USA), polyclonal anti-αV (Millipore, Burlington, MA, USA), monoclonal anti-α2 (Chemicon Int. Inc., Temecula, CA, USA), polyclonal anti-actin (Sigma-Aldrich, St. Louis, MO, USA), monoclonal anti-GAPDH (Abcam, Cambridge, UK), and purified vitronectin (VN, Corning, Glendale, AZ, USA). The cells were subsequently incubated with 50 nM FITC-uPAcyclin for 2 h at 4 °C, as described. At the end of incubation, the cells were washed and the cell surface-associated fluorescence was determined using a fluorimeter (VICTOR^TM X3-PerkinElmer, Waltham, MA, USA). All binding assays were performed three times, with duplicate samples, and analyzed as described in Section 2.11.
Figure 2 αV expression of U87-MG, U251-MG, and U138-MG GBM cells and specific binding of FITC-uPAcyclin. […] At the end of the incubation, the unbound material was washed and cell-associated FITC-uPAcyclin was quantitated by a fluorimeter. The net value of cell-surface-associated fluorescence, corresponding to the specific binding, is shown. […]

Take “Ac-K^1P[ESPPEELK^10]-NH2 (sidechain bridge or staple) [uPAcyclin]”: the proliferation/viability result in data set [1] is “proliferation and viability are not affected by uPAcyclin”. For the same substance, the Kdapp entry in data set [2] is given as “low nanomolar range”.
